Reference: patent US6225345A, “Azahexane derivatives as substrate isosters of retroviral asparate proteases” (Novartis AG, priority 1995, dated 2001)

Tests used:
HIV-1-protease = molecular target: T1, HIV-1-protease (Human immunodeficiency virus type 1 group M subtype B, UniProt P04585); assay: HIV-1-protease inhibition with icosapeptide substrate […] (HPLC); format: biochemical; details: pH 6.0, 37° C., 1 hour, icosapeptide 122 μM
T1 construct: made in house
Method: The inhibitory action of the compounds of formula I on the proteolytic activity of HIV-1-protease can be shown, for example, analogously to the method described by A. D. Richards et al., J. Biol. Chem. 265(14), 7733-7736 (1990). In that method the inhibition of the action of HIV-1-protease (prepared in accordance with S. Billich et al., J. Biol. Chem. 263(34), 17905-17908 (1990)) is measured in the presence of the icosapeptide […] SEQ ID NO:1, a synthetic substrate of HIV-1-protease, prepared by peptide synthesis in accordance with known procedures, see J. Schneider et al., Cell 54, 363-368 (1988)), which contains as substrate analogue one of the cleavage sites of the gag-precursor protein (natural substrate of HIV-1-protease). That substrate and its cleavage products are analysed by high performance liquid chromatography (HPLC).
The test compound is dissolved in dimethyl sulfoxide. The enzymatic test is carried out by adding suitable dilutions of the inhibitor in 20 mM β-morpholinoethanesulfonic acid (MES) buffer pH 6.0 to the test mixture. That mixture consists of the above-mentioned iscosapeptide (122 μM) in 20 mM MES-buffer pH 6.0. 100 μl are used per test batch. The reaction is started by the addition of […] of HIV-1-protease solution and is stopped after one hours incubation at 37° C. by the addition of 10 μl of 0.3M HClO4. After centrifugation of the sample at 10,000×g for 5 minutes, […] of the resulting supernatant are applied to a 125×4.6 mm Nucleosil® C18-5m-HPLC column (reversed-phase material supplied by Macherey & Nagel, Duren, FRG, based on silica gel that has been charged with C18 alkyl chains). The uncleaved icosapeptide and its cleavage products are eluted from the column by means of the following gradient: 100% eluant 1→50% eluant 1+50% eluant 2 (eluant 1: 10% acetonitrile, 90% H2 O, 0.1% trifluoroacetic acid (TFA); eluant 2: 75% acetonitrile, 25% H2 O, 0.08% TFA) for 15 minutes, throughflow rate 1 ml/min. The quantification of the eluted peptide fragments is carried out by measuring the peak height of the cleavage product at 215 nm.
In the test system described above (with […]), SEQ ID NO:1 the following IC50 values are obtained for Examples 1 to 5: […]

HIV-1/MN in MT-2-cells = assay: Protection of HIV-1/MN-infected MT-2-cells, reverse transcriptase activity; format: cell-based; details: Human immunodeficiency virus 1, MT2, 96 h; 90% reduction of RT activity; HIV-1-infected MT-2-cells; 4 days; read-out: ED90 (the source's name)
Text: In a further test it can be shown that compounds of formula I protect cells normally infected by HIV from such an infection or at least slow down such an infection. For this test, MT-2-cells infected with HIV-1/MN are used. MT-2-cells have been transformed with a continuous producer of HTLV-1 (a virus causing leukaemia); they are therefore especially sensitive to the cytopathogenic effect of HIV. MT-2-cells can be obtained via the AIDS Research and Reference Reagent Program, Division of AIDS, NIAID, NIH from Dr. Douglas Richman (see J. Biol. Chem. 263, 5870-5875 (1988) and also Science 229, 563-566 (1985)). The MT-2-cells are cultured in RPMI 1640-medium (Gibco, Scotland; RPMI comprises an amino acid mixture without glutamine) supplemented with 10% heat-inactivated foetal calf serum, glutamine and standard antibiotics. In all cases the cells, and also the virus stock solution used for the infection (HIV-1/MN), are free of mycoplasms. The virus stock solution is prepared as a cell culture supernatant of the permanently infected cell line H9/HIV-1/MN, which can likewise be obtained via the AIDS Research and Reference Program, Division of AIDS, NIAID, NIH from Dr. Robert Gallo (see also Science 224, 500-503 (1984) and Science 226, 1165-1170 (1984)). The titre of the HIV-1/MN virus stock solution (determined by titration onto MT-2-cells) is 4.2×10^5 TCID50/ml (TCID50=Tissue Culture Infective Dose=dose that infects 50% of the MT-2-cells). In order to measure the infection-inhibiting action of the compounds of formula I, 50 μl of the test compound in question in culture medium and 2800 TCID50 of HIV-1/MN in 100 μl of culture medium are added to 2×10^4 exponentially growing MT-2-cells which have been applied in 50 μl of culture medium to 96-well microtitre plates (having a round base). After 4 days' incubation (at 37° C., 5% CO2) a 10 μl sample of the supernatant is taken from each well, transferred to a further 96-well microtitre plate and (if necessary) stored at -20° C. In order to measure the activity of the virus-associated reverse transcriptase, 30 μl of reverse transcriptase (RT) cocktail are added to each sample. The reverse transcriptase cocktail consists of 50 mM Tris (α,α,α-tris(hydroxymethyl)methylamine, Ultra pur, Merck, Germany) pH 7.8; 75 mM KCl, 2 mM dithiothreitol, 5 mM MgCl2; 0.1% Nonidet P40 (detergent; Sigma, Switzerland), 0.8 mM EDTA, 10 μg/ml Poly-A (Pharmacia, Uppsala, Sweden) and 0.16 μg/ml oligo(T) (=pdT(12-18), Pharmacia, Uppsala, Sweden) as "template primer"--if desired, the mixture is filtered through a […] Acrodisc filter (Gelman Sciences Inc., Ann Arbor, USA). It is stored at -20° C. Prior to the test, 0.1% (v/v) [alpha-^32 P]dTTP is added to aliquots of the solution in order to establish a final radioactivity of 10 μCi/ml.
After mixing, the plate is incubated for 2 hours at 37° C. 5 μl of the reaction mixture are transferred to DE81 paper (Whatman, one filter per well). The dried filters are washed three times for 5 minutes with 300 mM NaCl/25 mM trisodium citrate and then once with ethanol and again dried in the air. The radioactivity on the filters is measured in a Matrix Packard 96-well counter (Packard, Zurich, Switzerland). The ED90 values are calculated and are defined as the concentration of the test compound that reduces the RT activity by 90% in comparison with a control without test compound. […]

in vivo = details: mouse, po, 120 mg/kg
Method: In order to determine their pharmacokinetics, the compounds of formula I are dissolved in dimethyl sulfoxide (DMSO) in a concentration of 240 mg/ml. The resulting solutions are diluted 1:20 (v/v) with 20% (w/v) aqueous hydroxypropyl-β-cyclodextrin solution in order to obtain a concentration of the test compound in question of 12 mg/ml. The resulting solution is treated briefly with ultrasound and administered orally to female BALB/c mice (Bomholt-garden, Copenhagen, Denmark) by artificial tube feeding at a dose of 120 mg/kg. At fixed times (for example 30, 60, 90, 120 min) after administration, mice are sacrificed and the plasma stored in heparinised test tubes. The blood is centrifuged (12,000×g, 5 min) and the plasma removed. The plasma is deproteinised by the addition of an equal volume of acetonitrile. The mixture is mixed using a vortex mixer and left to stand at room temperature for 20 to 30 minutes. The precipitate is pelleted by centrifugation (12,000×g, 5 min), and the concentration of the test compound is determined by reversed phase high performance liquid chromatography (HPLC).
The HPLC analysis of the samples obtained in accordance with the method described above is carried out on a 125×4.6 mm Nucleosil® C18 -column (reversed-phase material supplied by Macherey & Nagel, Duren, Germany, based on silica gel derivatised with carbon radicals having 18 carbon atoms), using a 2 cm long preliminary column of the same column material. The test is carried out with the following linear acetonitrile/water gradient (in each case in the presence of 0.05% trifluoroacetic acid): 20% acetonitrile to 100% acetonitrile for 20 min; then 5 min 100% acetonitrile; then returning to the initial conditions for 1 min and 4 min reequilibration. The flow rate is 1 ml/min. […] The test compound is detected by UV absorption measurement at 255 nm. Peaks are identified by the retention time and the UV spectrum between 205 and 400 nm. The concentrations are determined by the external standard method; the peak heights are obtained for determining the concentrations by comparison with standard curves.

HIV-protease = details: cited from earlier work
virus replication = details: in words; cited from earlier work
[1] = system: CD4-lymphocytes in the blood; details: AIDS patients, in words; cited from earlier work
[2] = in vivo, po; cited from earlier work
[3] = in vivo; cited from earlier work

| SMILES | IC50 (HIV-1-protease) [µM] | EC90 (HIV-1/MN in MT-2-cells) [µM] | concentration at 0.5 h (in vivo) [nM] | concentration at 1.5 h (in vivo) [nM] | inhibitory action against HIV-protease in vitro (HIV-protease) | virus replication in cell experiments (virus replication) | surrogate-marker (titre of the CD4-lymphocytes) [1] | blood levels in rodents [2] | blood levels in humans [3] |
| --- | --- | --- | --- | --- | --- | --- | --- | --- | --- |
| COC(=O)N[C@H](C(=O)N[C@@H](Cc1ccccc1)[C@@H](O)CN(Cc1ccc(-c2ccccc2)cc1)NC(=O)[C@@H](NC(=O)OC)C(C)(C)C)C(C)C [Example 1, 1-(4-Biphenylyl)-2-N-(N-methoxycarbonyl-(L)-tert-leucyl)-amino-4(S)-hydroxy-5(S)-N-(N-methoxycarbonyl-(L)-valyl)-amino-6-phenyl-2-azahexane] | 0.051 | 3 | 6330 | 5350 |  |  |  |  |  |
| COC(=O)N[C@H](C(=O)NN(Cc1ccc(-c2ccccc2)cc1)C[C@H](O)[C@H](Cc1ccccc1)NC(=O)[C@@H](NC(=O)OC)C(C)(C)C)C(C)C [Example 2, 1-(4-Biphenylyl)-2-N-(N-methoxycarbonyl-(L)-valinyl)-amino-4(S)-hydroxy-5(S)-N-(N-methoxycarbonyl-(L)-tert-leucyl)-amino-6-phenyl-2-azahexane] | 0.085 | 3 | 640 | 1110 |  |  |  |  |  |
| COC(=O)N[C@H](C(=O)NN(Cc1ccc(-c2ccccc2C#N)cc1)C[C@H](O)[C@H](Cc1ccccc1)NC(=O)[C@@H](NC(=O)OC)C(C)(C)C)C(C)C [Example 3, 1-[4-(2-Cyanophenyl)phenyl]-2-N-(N-methoxycarbonyl-(L)-valyl)-amino-4(S)-hydroxy-5(S)-N-(N-methoxycarbonyl-(L)-tert-leucyl)-amino-6-phenyl-2-azahexane] | 0.038 | 10 | 1420 | 1950 |  |  |  |  |  |
| COC(=O)N[C@H](C(=O)N[C@@H](Cc1ccccc1)[C@@H](O)CN(Cc1ccc(-c2ccccc2C#N)cc1)NC(=O)[C@@H](NC(=O)OC)C(C)(C)C)C(C)C [Example 4, 1-[4-(2-Cyanophenyl)phenyl)-2-N-(N-methoxycarbonyl-(L)-tert-leucyl)-amino-4(S)-hydroxy-5(S)-N-(N-methoxycarbonyl-(L)-valyl)-amino-6-phenyl-2-azahexane] | 0.043 | 3 | 1680 | 1930 |  |  |  |  |  |
| COC(=O)N[C@H](C(=O)N[C@@H](Cc1ccccc1)[C@@H](O)CN(Cc1ccc(-c2ccccc2)cc1)NC(=O)[C@@H](NC(=O)OC)C(C)(C)C)C(C)(C)C [Example 5, 1-(4-Biphenylyl)-4(S)-hydroxy-5(S)-2,5-bis[N-(N-methoxycarbonyl-(L)-tert-leucyl)-amino]-6-phenyl-2-azahexane] | 0.058 | 3 | 5530 | 4910 |  |  |  |  |  |
| CC(C)(C)NC(=O)[C@@H]1C[C@@H]2CCCC[C@@H]2CN1C[C@@H](O)[C@H](Cc1ccccc1)NC(=O)[C@H](CC(N)=O)NC(=O)c1ccc2ccccc2n1 [Ro 31-8959, N-tert-butyl-decahydro-2-[2(R)-hydroxy-4-phenyl-3(S)-[[N-2-quinolyl-carbonyl-L-asparaginyl]amino]butyl]-(4aS,8aS)-isoquinoline-3(S)-carboxamide] |  |  |  |  | exhibits an inhibitory action | suppression of virus replication | initial positive effects | blood levels that are still usable | usable blood levels |
